According to article PMC4685510, “A Cell Biologist’s Field Guide to Aurora Kinase Inhibitors” (Frontiers in Oncology, 2015):

How the values were obtained:
Test in all cases: biochemical
Assay type in all cases: biochemical
[1] = biological target: T1, 363 human kinases (including Aurora A/B/C) (Homo sapiens, UniProt O00444); conditions: PLK4/SAK; for remaining activity at 0.1 µM: 100 nM; for remaining activity at 0.1 µM / remaining activity at 0.5 µM: read-out: % Enzyme Activity (relative to DMSO controls)
T1 sequence (O00444 1-970): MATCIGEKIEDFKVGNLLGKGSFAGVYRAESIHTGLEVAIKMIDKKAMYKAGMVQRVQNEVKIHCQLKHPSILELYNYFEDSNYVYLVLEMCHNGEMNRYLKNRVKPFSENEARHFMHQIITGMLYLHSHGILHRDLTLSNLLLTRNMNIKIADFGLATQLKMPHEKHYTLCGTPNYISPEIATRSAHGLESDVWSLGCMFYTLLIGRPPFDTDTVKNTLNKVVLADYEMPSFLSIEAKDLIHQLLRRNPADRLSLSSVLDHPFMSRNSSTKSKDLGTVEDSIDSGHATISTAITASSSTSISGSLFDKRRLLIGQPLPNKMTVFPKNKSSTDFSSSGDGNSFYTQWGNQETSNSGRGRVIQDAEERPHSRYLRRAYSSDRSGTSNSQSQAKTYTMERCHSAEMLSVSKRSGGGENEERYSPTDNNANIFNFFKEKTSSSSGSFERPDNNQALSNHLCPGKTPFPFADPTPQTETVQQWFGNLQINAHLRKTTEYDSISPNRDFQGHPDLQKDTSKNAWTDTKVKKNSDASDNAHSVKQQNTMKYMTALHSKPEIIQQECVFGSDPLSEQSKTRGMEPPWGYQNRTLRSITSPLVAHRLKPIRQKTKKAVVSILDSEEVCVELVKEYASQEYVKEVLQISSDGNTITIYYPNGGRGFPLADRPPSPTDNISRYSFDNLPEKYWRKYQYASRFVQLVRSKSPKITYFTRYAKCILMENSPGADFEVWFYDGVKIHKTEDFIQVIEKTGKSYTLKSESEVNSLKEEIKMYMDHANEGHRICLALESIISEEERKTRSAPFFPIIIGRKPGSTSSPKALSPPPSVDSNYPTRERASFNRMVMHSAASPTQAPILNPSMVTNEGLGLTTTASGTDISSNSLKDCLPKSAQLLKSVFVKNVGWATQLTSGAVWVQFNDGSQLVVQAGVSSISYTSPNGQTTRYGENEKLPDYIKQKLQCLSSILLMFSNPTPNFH
Source text: (§1) However, the Aurora A/B selectivity ratios derived from our in vitro and in vivo data can be compared to prioritize inhibitors.

[2] = biological target: 363 human kinases (including Aurora A/B/C) (Homo sapiens, UniProt P00533); conditions: EGFR, [ATP] 1 µM; for remaining activity at 0.1 µM: 100 nM; for remaining activity at 0.1 µM / remaining activity at 0.5 µM: read-out: % Enzyme Activity (relative to DMSO controls)
Source text: as §1

[3] = biological target: 363 human kinases (including Aurora A/B/C) (Homo sapiens, UniProt Q00537); conditions: CDK17/cyclin Y (PCTK2), [ATP] 50 µM; for remaining activity at 0.1 µM: 100 nM; for remaining activity at 0.1 µM / remaining activity at 0.5 µM: read-out: % Enzyme Activity (relative to DMSO controls)
Source text: as §1

[4] = biological target: T2, 363 human kinases (including Aurora A/B/C) (Homo sapiens, UniProt Q32MK0); conditions: MYLK3; for remaining activity at 0.1 µM: 100 nM; for remaining activity at 0.1 µM / remaining activity at 0.5 µM: read-out: % Enzyme Activity (relative to DMSO controls)
T2 sequence (Q32MK0 1-819): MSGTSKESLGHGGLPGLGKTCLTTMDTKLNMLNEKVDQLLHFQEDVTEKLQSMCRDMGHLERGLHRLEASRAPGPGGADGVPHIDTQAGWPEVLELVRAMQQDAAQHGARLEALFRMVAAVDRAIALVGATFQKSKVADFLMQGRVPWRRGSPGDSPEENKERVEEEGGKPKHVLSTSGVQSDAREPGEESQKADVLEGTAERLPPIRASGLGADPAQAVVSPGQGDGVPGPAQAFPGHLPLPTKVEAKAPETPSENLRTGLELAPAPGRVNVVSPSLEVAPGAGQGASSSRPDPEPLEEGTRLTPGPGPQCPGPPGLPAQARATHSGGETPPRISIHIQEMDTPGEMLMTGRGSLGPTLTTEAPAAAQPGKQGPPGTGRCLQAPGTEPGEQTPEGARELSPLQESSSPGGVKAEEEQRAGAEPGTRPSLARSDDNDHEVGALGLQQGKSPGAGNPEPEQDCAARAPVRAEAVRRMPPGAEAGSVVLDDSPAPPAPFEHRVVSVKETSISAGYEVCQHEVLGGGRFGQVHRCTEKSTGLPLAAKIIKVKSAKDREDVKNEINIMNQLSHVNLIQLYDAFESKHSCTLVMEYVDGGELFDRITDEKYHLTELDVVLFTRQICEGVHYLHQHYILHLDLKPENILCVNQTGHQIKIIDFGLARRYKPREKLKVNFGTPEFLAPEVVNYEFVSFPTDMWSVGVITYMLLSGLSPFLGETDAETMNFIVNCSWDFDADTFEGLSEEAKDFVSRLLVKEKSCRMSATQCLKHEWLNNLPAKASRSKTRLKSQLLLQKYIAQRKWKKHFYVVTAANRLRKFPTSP
Source text: as §1

[5] = biological target: T3, 363 human kinases (including Aurora A/B/C) (Homo sapiens, UniProt Q8IVT5); conditions: KSR1; for remaining activity at 0.1 µM: 100 nM; for remaining activity at 0.1 µM / remaining activity at 0.5 µM: read-out: % Enzyme Activity (relative to DMSO controls)
T3 sequence (Q8IVT5 1-923): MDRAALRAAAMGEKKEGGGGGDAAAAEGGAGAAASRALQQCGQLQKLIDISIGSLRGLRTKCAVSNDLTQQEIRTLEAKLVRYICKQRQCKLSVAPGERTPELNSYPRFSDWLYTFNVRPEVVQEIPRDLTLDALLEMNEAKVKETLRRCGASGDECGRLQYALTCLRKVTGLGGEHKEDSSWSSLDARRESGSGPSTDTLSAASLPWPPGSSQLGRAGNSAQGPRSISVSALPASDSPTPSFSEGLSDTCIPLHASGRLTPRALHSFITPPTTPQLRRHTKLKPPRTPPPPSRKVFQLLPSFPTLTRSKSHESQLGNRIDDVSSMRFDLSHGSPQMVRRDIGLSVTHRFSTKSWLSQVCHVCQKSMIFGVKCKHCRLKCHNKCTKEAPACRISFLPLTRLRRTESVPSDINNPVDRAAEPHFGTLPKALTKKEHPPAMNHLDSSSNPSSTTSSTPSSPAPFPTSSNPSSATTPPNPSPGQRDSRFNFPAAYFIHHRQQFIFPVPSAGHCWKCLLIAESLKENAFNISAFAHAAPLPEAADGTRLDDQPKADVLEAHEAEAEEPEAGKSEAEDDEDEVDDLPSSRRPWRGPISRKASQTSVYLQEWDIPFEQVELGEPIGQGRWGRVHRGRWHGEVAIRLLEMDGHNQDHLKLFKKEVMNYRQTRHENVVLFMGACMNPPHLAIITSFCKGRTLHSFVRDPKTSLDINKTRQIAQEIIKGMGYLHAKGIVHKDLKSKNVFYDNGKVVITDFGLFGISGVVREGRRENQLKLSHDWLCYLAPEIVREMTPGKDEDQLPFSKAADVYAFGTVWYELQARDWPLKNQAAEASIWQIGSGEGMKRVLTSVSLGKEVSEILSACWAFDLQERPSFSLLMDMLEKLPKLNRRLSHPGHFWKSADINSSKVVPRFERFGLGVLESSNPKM
Source text: as §1

Sequence of 363 human kinases (including Aurora A/B/C) (Homo sapiens, UniProt Q00537) (Q00537 whole entry): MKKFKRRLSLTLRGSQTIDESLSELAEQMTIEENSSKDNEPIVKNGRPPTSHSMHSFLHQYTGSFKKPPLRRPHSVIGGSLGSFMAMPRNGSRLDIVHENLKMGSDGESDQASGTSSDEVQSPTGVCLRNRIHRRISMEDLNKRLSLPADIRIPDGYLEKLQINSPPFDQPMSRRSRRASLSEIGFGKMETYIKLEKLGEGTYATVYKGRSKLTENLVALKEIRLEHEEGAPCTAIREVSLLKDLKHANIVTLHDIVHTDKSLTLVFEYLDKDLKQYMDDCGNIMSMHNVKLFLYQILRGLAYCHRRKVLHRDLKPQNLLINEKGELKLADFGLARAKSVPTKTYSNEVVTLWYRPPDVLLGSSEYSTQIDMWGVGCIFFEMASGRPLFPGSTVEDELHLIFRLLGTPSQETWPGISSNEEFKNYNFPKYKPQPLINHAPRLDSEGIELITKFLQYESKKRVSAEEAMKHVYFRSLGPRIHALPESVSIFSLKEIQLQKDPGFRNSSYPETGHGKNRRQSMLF
Sequence of 363 human kinases (including Aurora A/B/C) (Homo sapiens, UniProt P00533) (P00533 25-1210): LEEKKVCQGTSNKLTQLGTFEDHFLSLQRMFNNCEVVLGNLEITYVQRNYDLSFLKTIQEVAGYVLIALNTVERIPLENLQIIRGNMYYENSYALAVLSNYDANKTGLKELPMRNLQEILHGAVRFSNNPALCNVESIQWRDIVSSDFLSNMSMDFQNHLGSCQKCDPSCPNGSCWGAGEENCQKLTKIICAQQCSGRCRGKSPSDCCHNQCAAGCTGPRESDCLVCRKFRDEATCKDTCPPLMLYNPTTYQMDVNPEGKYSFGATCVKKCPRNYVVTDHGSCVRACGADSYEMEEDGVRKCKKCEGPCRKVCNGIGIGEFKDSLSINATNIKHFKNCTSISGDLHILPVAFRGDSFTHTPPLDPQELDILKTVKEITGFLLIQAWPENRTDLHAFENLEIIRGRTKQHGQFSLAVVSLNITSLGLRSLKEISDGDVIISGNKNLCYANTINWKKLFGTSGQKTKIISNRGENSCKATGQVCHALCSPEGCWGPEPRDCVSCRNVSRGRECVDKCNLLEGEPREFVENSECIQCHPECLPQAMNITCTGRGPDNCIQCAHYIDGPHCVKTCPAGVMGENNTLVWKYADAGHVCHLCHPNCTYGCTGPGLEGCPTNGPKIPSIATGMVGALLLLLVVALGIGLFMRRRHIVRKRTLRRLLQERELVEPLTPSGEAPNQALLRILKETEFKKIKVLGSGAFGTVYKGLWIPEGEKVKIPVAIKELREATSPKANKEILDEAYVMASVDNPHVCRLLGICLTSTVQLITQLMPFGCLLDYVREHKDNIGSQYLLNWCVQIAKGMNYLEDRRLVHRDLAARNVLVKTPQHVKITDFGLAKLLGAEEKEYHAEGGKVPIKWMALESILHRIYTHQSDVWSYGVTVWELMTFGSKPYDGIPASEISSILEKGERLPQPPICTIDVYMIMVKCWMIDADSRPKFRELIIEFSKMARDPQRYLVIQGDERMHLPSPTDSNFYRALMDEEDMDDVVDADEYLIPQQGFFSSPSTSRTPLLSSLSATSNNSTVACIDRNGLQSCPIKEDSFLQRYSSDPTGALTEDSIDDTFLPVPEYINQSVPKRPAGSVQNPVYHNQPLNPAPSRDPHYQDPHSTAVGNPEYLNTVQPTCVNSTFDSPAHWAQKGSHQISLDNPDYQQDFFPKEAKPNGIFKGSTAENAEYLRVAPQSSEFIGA

Row | Compound | remaining activity at 0.1 µM [1] | remaining activity at 0.5 µM ([1]; 500 nM) | remaining activity at 0.1 µM [2] | remaining activity at 0.5 µM ([2]; 500 nM) | remaining activity at 0.1 µM [3] | remaining activity at 0.5 µM ([3]; 500 nM) | remaining activity at 0.1 µM [4] | remaining activity at 0.5 µM ([4]; 500 nM) | remaining activity at 0.1 µM [5] | remaining activity at 0.5 µM ([5]; 500 nM) | % Enzyme Activity (relative to DMSO controls) ([1]; 500 nM) | % Enzyme Activity (relative to DMSO controls) ([2]; 500 nM) | % Enzyme Activity (relative to DMSO controls) ([3]; 500 nM) | % Enzyme Activity (relative to DMSO controls) ([4]; 500 nM) | % Enzyme Activity (relative to DMSO controls) ([5]; 500 nM)
1 | O=C(O)[C@]1(Cc2cccc(Nc3nccs3)n2)CC[C@@H](Oc2cccc(Cl)c2F)CC1 [MK-5108] | 21.9% | 9.25% | 67.3% | 33.9% | 95.4% | 81.9% | 97.3% | 99.7% | 98.6% | 98% | – | – | – | – | –
2 | O=C(c1cccc(Cl)c1F)N1CCN(Cc2cccc(Nc3nccs3)n2)CC1 [MK-8745] | – | 71.4% | – | 99.1% | – | 87% | – | 103% | – | 93.4% | 70.47% | 97.09% | 86.82% | 102.40% | 92.75%
3 | CCn1cc(-c2ccnc3[nH]c(-c4cccc(CN(C)C)c4)cc23)c(-c2ccc(NC(=O)N(C)C)cc2)n1 [GSK1070916] | 115% | – | 54.6% | – | 90.9% | – | 102% | – | 94.2% | – | – | – | – | – | –
